Test results: the NIST ThermoML archive (doi:10.1021/acs.jced.7b00221)

Assay: xn = mol fraction of the nth substance listed
Conditions: 100 kPa, Liquid; for viscosity: Cone and plate viscometry; for mass density: Vibrating tube method

CCCCCCn1cc[n+](C)c1.N#Cc1ccc[n-]1 [1-hexyl-3-methylimidazolium 2-cyanopyrrolide] + CCCCCCCCCCCCCC[P+](CCCCCC)(CCCCCC)CCCCCC.O=S(=O)([N-]S(=O)(=O)C(F)(F)F)C(F)(F)F
viscosity [mPa·s]
Conditions	278.15 K	283.15 K	288.15 K	293.15 K	298.15 K	303.15 K	308.15 K	313.15 K	318.15 K	323.15 K
x1 = 0.1	1166	806	568	410	303	229	176	138	110	89
x1 = 0.2	1261	867	605	435	320	241	185	145	115	93
x1 = 0.3	1258	851	589	419	307	230	176	137	109	87
x1 = 0.399	1299	876	602	426	310	231	177	137	109	88
x1 = 0.499	1275	846	575	404	292	216	164	127	100	81
x1 = 0.6	1379	905	612	423	304	224	169	130	102	82
x1 = 0.7	1410	910	603	416	295	216	162	125	97	78
x1 = 0.8	1397	877	571	387	271	196	146	112	87	69
x1 = 0.9	1461	893	566	374	257	183	135	101	79	62
x1 = 1	1540	902	553	355	239	167	122	91	70	55

CCCCCCCC[P+](CC)(CC)CC.O=[N+]([O-])c1cn[n-]c1 [triethyloctylphosphonium 4-nitropyrazolide] + CCCCCCn1cc[n+](C)c1C.O=S(=O)([N-]S(=O)(=O)C(F)(F)F)C(F)(F)F
Conditions	mass density [kg/m3]	viscosity [mPa·s]
278.15 K, x1 = 0.124	–	602
278.15 K, x1 = 0.25	–	771
278.15 K, x1 = 0.401	–	1011
278.15 K, x1 = 0.5	–	1156
278.15 K, x1 = 0.6	–	1244
278.15 K, x1 = 0.751	–	1382
278.15 K, x1 = 0.9	–	1386
283.15 K, x1 = 0.124	1331.5	409
283.15 K, x1 = 0.25	1290	510
283.15 K, x1 = 0.401	–	658
283.15 K, x1 = 0.5	1206.7	742
283.15 K, x1 = 0.6	–	795
283.15 K, x1 = 0.751	1123.8	883
283.15 K, x1 = 0.9	1074.2	890
283.15 K, x1 = 1	1040.7	–
288.15 K, x1 = 0.124	1327.1	283
288.15 K, x1 = 0.25	1285.9	348
288.15 K, x1 = 0.401	–	442
288.15 K, x1 = 0.5	1203	491
288.15 K, x1 = 0.6	–	524
288.15 K, x1 = 0.751	1120.4	580
288.15 K, x1 = 0.9	1071	589
288.15 K, x1 = 1	1037.7	–
293.15 K, x1 = 0.124	1322.8	204
293.15 K, x1 = 0.25	1281.8	246
293.15 K, x1 = 0.401	–	307
293.15 K, x1 = 0.5	1199.2	338
293.15 K, x1 = 0.6	–	359
293.15 K, x1 = 0.751	1117	396
293.15 K, x1 = 0.9	1067.8	404
293.15 K, x1 = 1	1034.6	–
295.15 K, x1 = 0.124	1321	–
295.15 K, x1 = 0.25	1280.1	–
295.15 K, x1 = 0.5	1197.7	–
295.15 K, x1 = 0.751	1115.6	–
295.15 K, x1 = 0.9	1066.5	–
295.15 K, x1 = 1	1033.4	–
298.15 K, x1 = 0.124	1318.5	151
298.15 K, x1 = 0.25	1277.6	179
298.15 K, x1 = 0.401	–	220
298.15 K, x1 = 0.5	1195.5	241
298.15 K, x1 = 0.6	–	254
298.15 K, x1 = 0.751	1113.6	279
298.15 K, x1 = 0.9	1064.6	285
298.15 K, x1 = 1	1031.5	–
303.15 K, x1 = 0.124	1314.3	115
303.15 K, x1 = 0.25	1273.7	135
303.15 K, x1 = 0.401	–	163
303.15 K, x1 = 0.5	1191.8	177
303.15 K, x1 = 0.6	–	185
303.15 K, x1 = 0.751	1110.2	203
303.15 K, x1 = 0.9	1061.4	208
303.15 K, x1 = 1	1028.5	–
308.15 K, x1 = 0.124	1310.1	90
308.15 K, x1 = 0.25	1269.7	104
308.15 K, x1 = 0.401	–	124
308.15 K, x1 = 0.5	1188.1	134
308.15 K, x1 = 0.6	–	139
308.15 K, x1 = 0.751	1106.9	152
308.15 K, x1 = 0.9	1058.3	156
308.15 K, x1 = 1	1025.5	–
313.15 K, x1 = 0.124	1306	72
313.15 K, x1 = 0.25	1265.7	82
313.15 K, x1 = 0.401	–	97
313.15 K, x1 = 0.5	1184.5	103
313.15 K, x1 = 0.6	–	106
313.15 K, x1 = 0.751	1103.7	117
313.15 K, x1 = 0.9	1055.3	119
313.15 K, x1 = 1	1022.6	–
318.15 K, x1 = 0.124	1301.8	58
318.15 K, x1 = 0.25	1261.7	65
318.15 K, x1 = 0.401	–	77
318.15 K, x1 = 0.5	1180.9	82
318.15 K, x1 = 0.6	–	83
318.15 K, x1 = 0.751	1100.4	91
318.15 K, x1 = 0.9	1052.2	94
318.15 K, x1 = 1	1019.6	–
323.15 K, x1 = 0.124	1297.6	–
323.15 K, x1 = 0.25	1257.7	53
323.15 K, x1 = 0.401	–	63
323.15 K, x1 = 0.5	1177.3	66
323.15 K, x1 = 0.6	–	67
323.15 K, x1 = 0.751	1097.1	73
323.15 K, x1 = 0.9	1049.1	75
323.15 K, x1 = 1	1016.7	–
328.15 K, x1 = 0.124	1293.5	–
328.15 K, x1 = 0.25	1253.8	–
328.15 K, x1 = 0.5	1173.7	–
328.15 K, x1 = 0.751	1093.9	–
328.15 K, x1 = 0.9	1046.1	–
328.15 K, x1 = 1	1013.8	–
333.15 K, x1 = 0.124	1289.3	–
333.15 K, x1 = 0.25	1249.8	–
333.15 K, x1 = 0.5	1170.2	–
333.15 K, x1 = 0.751	1090.6	–
333.15 K, x1 = 0.9	1043	–
333.15 K, x1 = 1	1010.8	–
338.15 K, x1 = 0.124	1285.1	–
338.15 K, x1 = 0.25	1245.8	–
338.15 K, x1 = 0.5	1166.6	–
338.15 K, x1 = 0.751	1087.4	–
338.15 K, x1 = 0.9	1040	–
338.15 K, x1 = 1	1007.9	–
343.15 K, x1 = 0.124	1281	–
343.15 K, x1 = 0.25	1241.9	–
343.15 K, x1 = 0.5	1163	–
343.15 K, x1 = 0.751	1084.1	–
343.15 K, x1 = 0.9	1036.9	–
343.15 K, x1 = 1	1005	–
348.15 K, x1 = 0.124	1276.9	–
348.15 K, x1 = 0.25	1237.9	–
348.15 K, x1 = 0.5	1159.5	–
348.15 K, x1 = 0.751	1080.9	–
348.15 K, x1 = 0.9	1033.9	–
348.15 K, x1 = 1	1002.1	–
353.15 K, x1 = 0.124	1272.7	–
353.15 K, x1 = 0.25	1234	–
353.15 K, x1 = 0.5	1155.9	–
353.15 K, x1 = 0.751	1077.7	–
353.15 K, x1 = 0.9	1030.9	–
353.15 K, x1 = 1	999.2	–
